Assay results published in ChEMBL document CHEMBL5608113, “Targeting of CAF-induced therapy resistance in CRC organoid-stroma co-cultures” (2024).

Experiments:
Format in all cases: functional, Homo sapiens
Details in all cases: Homo sapiens, read-out: Cell Viability; for viability at 10 µM: Concentration 10 uM; for viability at 1 µM: Concentration 1 uM
Colon cancer organoid [1] = assay: Targeting of F14 CAF-induced therapy resistance in O23 CRC organoid-stroma co-culture. Cell viability is reported with Gefitinib.
Colon cancer organoid [2] = assay: Targeting of F14 CAF-induced therapy resistance in O14 CRC organoid-stroma co-culture. Cell viability is reported without Gefitinib.
Colon cancer organoid [3] = assay: Targeting of F14 CAF-induced therapy resistance in O23 CRC organoid-stroma co-culture. Cell viability is reported with SN-38.
Colon cancer organoid [4] = assay: Targeting of F14 CAF-induced therapy resistance in O14 CRC organoid-stroma co-culture. Cell viability is reported with Gefitinib.
Colon cancer organoid [5] = assay: Targeting of F14 CAF-induced therapy resistance in O23 CRC organoid-stroma co-culture. Cell viability is reported without Gefitinib.

Row | SMILES | viability at 10 µM (Colon cancer organoid [1]) [%] | viability at 10 µM (Colon cancer organoid [2]) [%] | viability at 10 µM (Colon cancer organoid [3]) [%] | viability at 10 µM (Colon cancer organoid [4]) [%] | viability at 10 µM (Colon cancer organoid [5]) [%] | viability at 1 µM (Colon cancer organoid [1]) [%] | viability at 1 µM (Colon cancer organoid [2]) [%] | viability at 1 µM (Colon cancer organoid [3]) [%] | viability at 1 µM (Colon cancer organoid [4]) [%] | viability at 1 µM (Colon cancer organoid [5]) [%]
1 | O=C(O)CNC(=O)c1c(O)c2ccccc2n(Cc2ccccc2)c1=O | 67.5 | 103 | 95.1 | 80.4 | 167 |  |  |  |  | 
2 | CN1C(=O)[C@@H](N2CCc3cn(Cc4ccccc4)nc3C2=O)COc2ccccc21 [TP-030-1] |  |  |  |  |  | 56 | 125 | 66.7 | 40.8 | 138
3 | CC1CCN(c2ccnc(NCc3cn(C)cn3)n2)CC1 [TP-040] | 81.4 | 128 | 62.9 | 55 | 107 |  |  |  |  | 
4 | Cc1noc([C@H]2C[C@@H](c3ccc(C(F)(F)F)cc3)CN(C(=O)N3CCS(=O)(=O)C3)C2)n1 [BAY-448] | 58 | 99.7 | 95.1 | 49 | 124 |  |  |  |  | 
5 | CCn1cc(-c2cccc(C(F)(F)F)c2)c2sc(C(=N)NC3CCS(=O)(=O)CC3)cc2c1=O | 68.8 | 132 | 84.2 | 66.7 | 144 |  |  |  |  | 
6 | Cc1c(NC(=O)c2cc(C(N)=O)nc3cc(F)ccc23)c(C(F)(F)F)nn1Cc1ccc(C#N)cc1 [BAY-876] | 15 | 16.3 | 39.6 | 5.75 | 43.8 |  |  |  |  | 
7 | O=C(Nc1cccnn1)N1CCC(=Cc2cccc(Oc3ccc(C(F)(F)F)cn3)c2)CC1 | 54.6 | 94 | 105 | 37.7 | 114 |  |  |  |  | 
8 | CCN(Cc1ccc(Cl)cc1)c1ncc(C(=O)NCCCN2CCCC2=O)c(NC2CCCC2)n1 | 74.3 | 108 | 61.6 | 46.6 | 105 |  |  |  |  | 
9 | CNCc1ccccc1-c1csc([C@@H](C)Nc2nc(C)nc3cc(OC)c(OC)cc23)c1 [BAY-293] | 35 | 64 | 50.2 | 16.6 | 69.8 |  |  |  |  | 
10 | Cn1nc(C(=O)NCc2ccc(C(=O)O)cc2)cc1-c1ccc2[nH]ccc2c1 [BI 4395] | 52.8 | 95.3 | 77.4 | 62.1 | 124 |  |  |  |  | 
11 | Cn1c(=O)[nH]c2cc(N3C(=O)c4cccc5c(CCCO)ccc(c45)C3=O)ccc21 | 52.8 | 92.6 | 69.9 | 42.4 | 132 |  |  |  |  | 
12 | O=C(Nc1ccc(Oc2ccc(F)cc2)cc1)N1CCc2ncccc2[C@H]1c1ccc(F)cc1 [BAY-897] |  |  |  |  |  | 47.5 | 80 | 61.9 | 32.3 | 111
13 | COc1cc(OC)cc(-c2noc(N3CCN(C)C4(CCN(c5ccnc(C)c5)CC4)C3)n2)c1 | 74.2 | 103 | 101 | 49.2 | 108 |  |  |  |  | 
14 | O=C(Nc1ccc(-n2nc(-c3cccnc3)cc2C(F)(F)F)cn1)c1ccc(-c2ccccc2)c(F)c1 [BI 2049] |  |  |  |  |  | 32.7 | 132 | 97.9 | 24.6 | 103
15 | CCN(CC)S(=O)(=O)Nc1cccc(-c2ccc3c(NC(=O)C4CC4)n[nH]c3c2)c1 | 65.5 | 144 | 69.2 | 50.5 | 120 |  |  |  |  | 
